Data from patent US8586588B2, “Aryl pyridazinone derivatives and their use as H3 receptor ligands” (Cephalon, Inc., priority 2006, dated 2013).
Read-outs that look alike come from different tables or passages of the source.

Experiments:
[1] = molecular target: T1, rat histamine H3 receptor (Rattus norvegicus, UniProt Q9QYN8); assay: Rat H3 radioligand binding ([3H]-N-alpha-methylhistamine, CHO-A3 cell membranes, SPA)
T1 construct: encoding the entire 445-amino-acid rat histamine H3 receptor; expressed in transfected cells
Procedure: (§1) This was engineered into the pIRES-neo3 mammalian expression vector, which was stably transfected into the CHO-A3 cell line (Euroscreen, Belgium), followed by clonal selection by limiting dilution. Cells were harvested and cell pellets were frozen (−80° C.). Cell pellets were resuspended in 5 mM Tris-HCl, pH 7.5 with […] and a cocktail of protease inhibitors (Complete Protease Inhibition Tablets, Roche Diagnostics). Cells were disrupted using a polytron cell homogenizer and the suspension was centrifuged at 1000×g for 10 minutes at 4° C. The pellet was discarded and the supernatant centrifuged at 40,000×g for 30 min at 4° C. This membrane pellet was washed in membrane buffer containing 50 mM Tris-HCl, pH 7.5 with 0.6 mM EDTA, 5 mM MgCl2 and protease inhibitors, recentrifuged as above and the final pellet resuspended in membrane buffer plus 250 mM sucrose and frozen at −80° C.
(§2) Membranes were resuspended in 50 mM Tris HCl (pH 7.4), 5 mM MgCl2, 0.1% BSA. The membrane suspensions (10 μg protein per well) were incubated in a 96 well microtiter plate with [^3H]-N-alpha-methylhistamine (approximately 1 nM final concentration), test compounds at various concentrations (0.01 nM-30 μM) and scintillation proximity beads (Perkin Elmer, FlashBlueGPCR Scintillating Beads) in a final volume of 80 μl for 4 hours at room temperature, protected from light. Non-specific binding was determined in the presence of 10 μM clobenpropit. Radioligand bound to receptor, and therefore in proximity to the scintillation beads, was measured using a MicroBeta scintillation counter.

[2] = molecular target: T2, human H3 receptor (Homo sapiens, UniProt Q9Y5N1); assay: Human H3 radioligand binding ([3H]-N-alpha-methylhistamine, CHO cell membranes, SPA); details: binding constant as letter class
T2 construct: expressed in transfected cells
Procedure: as §1, with “Cell” for “This was engineered into the pIRES-neo3 mammalian expression vector, which was stably transfected into the CHO-A3 cell line (Euroscreen, Belgium), followed by clonal selection by limiting dilution. Cells were harvested and cell pellets were frozen (−80° C.). Cell”
as §2

[3] = Table B, binding constant as letter class, read-out: rat H3 Ki
[4] = Table A, binding constant as letter class, read-out: Rat H3 Ki

T1 sequence (Q9QYN8 whole entry): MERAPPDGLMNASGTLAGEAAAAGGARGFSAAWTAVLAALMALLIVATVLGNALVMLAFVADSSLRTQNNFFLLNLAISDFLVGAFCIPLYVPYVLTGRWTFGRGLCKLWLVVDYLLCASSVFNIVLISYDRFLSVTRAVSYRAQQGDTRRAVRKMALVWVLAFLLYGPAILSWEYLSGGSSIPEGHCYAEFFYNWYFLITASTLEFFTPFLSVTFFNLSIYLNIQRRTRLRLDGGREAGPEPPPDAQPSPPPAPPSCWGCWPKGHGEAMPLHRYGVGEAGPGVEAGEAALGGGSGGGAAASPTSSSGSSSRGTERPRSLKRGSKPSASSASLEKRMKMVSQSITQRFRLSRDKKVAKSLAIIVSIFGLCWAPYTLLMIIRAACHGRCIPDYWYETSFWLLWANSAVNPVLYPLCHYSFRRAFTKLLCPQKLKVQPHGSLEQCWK
T2 sequence (Q9Y5N1 whole entry): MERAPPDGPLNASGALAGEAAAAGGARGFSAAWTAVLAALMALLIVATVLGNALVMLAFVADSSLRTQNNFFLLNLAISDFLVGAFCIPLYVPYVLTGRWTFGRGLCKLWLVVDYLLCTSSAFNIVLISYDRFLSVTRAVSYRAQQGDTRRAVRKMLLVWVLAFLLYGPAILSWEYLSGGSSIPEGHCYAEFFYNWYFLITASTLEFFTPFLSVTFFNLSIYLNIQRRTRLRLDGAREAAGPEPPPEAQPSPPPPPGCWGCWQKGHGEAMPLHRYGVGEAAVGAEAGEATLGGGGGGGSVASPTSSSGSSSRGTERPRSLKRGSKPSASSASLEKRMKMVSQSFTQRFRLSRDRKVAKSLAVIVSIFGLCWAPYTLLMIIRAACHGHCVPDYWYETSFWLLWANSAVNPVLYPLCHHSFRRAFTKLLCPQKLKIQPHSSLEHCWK

Ki [1, 3] | Ki ([2]; Table B) | Ki [1, 4] | Ki ([2]; Table A) | Compound | Ki [1]
0.1 to 100 nM | 0.1 to 100 nM | – | – | CC1CC(=O)NN=C1c1ccc(OCCCN2CCC[C@H]2C)cc1 (mixture of isomers) [Example 194, 5-Methyl-6-{4-[3-((R)-2-methyl-pyrrolidin-1-yl)-propoxy]-phenyl}-4,5-dihydro-2H-pyridazin-3-one] | –
0.1 to 100 nM | 0.1 to 100 nM | – | – | CC1CC(=O)NN=C1c1ccc(OCCCN2CCCCC2)cc1 (racemic) [Example 197, 5-Methyl-6-[4-(3-piperidin-1-yl-propoxy)-phenyl]-4,5-dihydro-2H-pyridazin-3-one] | –
0.1 to 100 nM | 0.1 to 100 nM | – | – | CC1CC(=O)NN=C1c1ccc(OCCCN2CCCC2)cc1 (racemic) [Example 198, 5-Methyl-6-[4-(3-pyrrolidin-1-yl-propoxy)-phenyl]-4,5-dihydro-2H-pyridazin-3-one] | –
0.1 to 100 nM | 0.1 to 100 nM | – | – | C[C@@H]1CCCN1CCCOc1ccc(C2=NNC(=O)C3CC23)cc1 (mixture of isomers) [Example 243, 5-{4-[3-((R)-2-Methyl-pyrrolidin-1-yl)-propoxy]-phenyl}-3,4-diaza-bicyclo[4.1.0]hept-4-en-2-one] | –
0.1 to 100 nM | 0.1 to 100 nM | – | – | CC1CC(=O)NN=C1c1ccc(OCCCN2CCC[C@H]2C)cc1 (single isomer, unassigned) [Example 195] | –
0.1 to 100 nM | 0.1 to 100 nM | – | – | CC1CC(=O)NN=C1c1ccc(OCCCN2CCC[C@H]2C)cc1 (single isomer, unassigned) [Example 196] | –
0.1 to 100 nM | 0.1 to 100 nM | – | – | C[C@@H]1CCCN1CCCOc1ccc(C2=NNC(=O)C3CC23)cc1 (single isomer, unassigned) [Example 246] | –
0.1 to 100 nM | – | – | – | C[C@@H]1CCCN1CCCOc1ccc(C2=NNC(=O)C3CC23)cc1 (single isomer, unassigned) [Example 247] | –
0.1 to 100 nM | 0.1 to 100 nM | – | – | O=C1NN=C(c2ccc(OC3CCN(C4CCC4)CC3)cc2)C2CC12 (single isomer, unassigned) [Example 248, 5-[4-(1-Cyclobutyl-piperidin-4-yloxy)-phenyl]-3,4-diaza-bicyclo[4.1.0]hept-4-en-2-one] | –
0.1 to 100 nM | 0.1 to 100 nM | – | – | O=C1NN=C(c2ccc(OC3CCN(C4CCC4)CC3)cc2)C2CC12 (single isomer, unassigned) [Example 249, 5-[4-(1-Cyclobutyl-piperidin-4-yloxy)-phenyl]-3,4-diaza-bicyclo[4.1.0]hept-4-en-2-one] | –
– | – | 0.1 to 100 nM | 0.1 to 100 nM | C[C@@H]1CCCN1CCCOc1ccc(-c2ccc(=O)n(C)n2)cc1 [Example 1, 2-Methyl-6-{4-[3-((R)-2-methyl-pyrrolidin-1-yl)-propoxy]-phenyl}-2H-pyridazin-3-one] | –
– | – | 101 to 500 nM | 0.1 to 100 nM | Cn1nc(-c2ccc(OCCCN3CCCCC3)cc2)ccc1=O [Example 2, 2-Methyl-6-[4-(3-piperidin-1-yl-propoxy)-phenyl]-2H-pyridazin-3-one] | –
– | – | 0.1 to 100 nM | 0.1 to 100 nM | CC(C)n1nc(-c2ccc(OCCCN3CCCCC3)cc2)ccc1=O [Example 3, 2-Isopropy1-6-[4-(3-piperidin-1-yl-propoxy)-pheny1]-2H-pyridazin-3-one] | –
– | – | 0.1 to 100 nM | 0.1 to 100 nM | CC(C)N1N=C(c2ccc(OCCCN3CCCCC3)cc2)CCC1=O [Example 4, 2-Isopropy1-6-[4-(3-piperidin-1-yl-propoxy)-phenyl]-4,5-dihydro-2H-pyridazin-3-one] | –
– | – | 0.1 to 100 nM | 0.1 to 100 nM | CC(C)n1nc(-c2ccc(OCCCN3CCC[C@H]3C)cc2)ccc1=O [Example 5, 2-Isopropyl-6-{4-[3-((R)-2-methyl-pyrrolidin-1-yl)-propoxy]-phenyl}-2H-pyridazin-3-one] | –
– | – | 0.1 to 100 nM | 0.1 to 100 nM | CCn1nc(-c2ccc(OCCCN3CCC[C@H]3C)cc2)ccc1=O [Example 6, 2-Ethyl-6-{4-[3-((R)-2-methyl-pyrrolidin-1-yl)-propoxy]-phenyl}-2H-pyridazin-3-one] | –
– | – | 0.1 to 100 nM | 0.1 to 100 nM | C[C@@H]1CCCN1CCCOc1ccc(-c2ccc(=O)n(C)n2)cc1F [Example 7, 6-{3-Fluoro-4-[3-((R)-2-methyl-pyrrolidin-1-yl)-propoxy]-phenyl}-2-methyl-2H-pyridazin-3-one] | –

Ki [1, 3] | Ki ([2]; Table B) | Ki [1, 4] | Ki ([2]; Table A) | Compound | Ki [1]
– | – | 0.1 to 100 nM | 0.1 to 100 nM | C[C@@H]1CCCN1CCCOc1ccc(C2=NN(Cc3ccc(Cl)cc3Cl)C(=O)CC2)cc1 [Example 8, 2-(2,4-Dichloro-benzyl)-6-{4-[3-((R)-2-methyl-pyrrolidin-1-yl)-propoxy]-phenyl}-4,5-dihydro-2H-pyridazin-3-one] | –
– | – | 0.1 to 100 nM | 0.1 to 100 nM | C[C@@H]1CCCN1CCCOc1ccc(-c2ccc(=O)n(-c3cc(Cl)cc(Cl)c3)n2)cc1 [Example 9, 2-(3,5-Dichloro-phenyl)-6-{4-[3-((R)-2-methyl-pyrrolidin-1-yl)-propoxy]-phenyl}-2H-pyridazin-3-one] | –
– | – | 101 to 500 nM | 0.1 to 100 nM | O=c1ccc(-c2ccc(OCCCN3CCCCC3)c(F)c2)nn1-c1ccccc1 [Example 10, 6-[3-Fluoro-4-(3-piperidin-1-yl-propoxy)-phenyl]-2-phenyl-2H-pyridazin-3-one] | –
– | – | 0.1 to 100 nM | 0.1 to 100 nM | C[C@@H]1CCCN1CCCOc1ccc(-c2ccc(=O)[nH]n2)cc1 [Example 11, 6-{4-[3-((R)-2-Methyl-pyrrolidin-1-yl)-propoxy]-phenyl}-2H-pyridazin-3-one] | –
– | – | 0.1 to 100 nM | 0.1 to 100 nM | C[C@@H]1CCCN1CCCOc1ccc(-c2n[nH]c(=O)c3c2CCC3)cc1 [Example 12, 4-{4-[3-((R)-2-Methyl-pyrrolidin-1-yl)-propoxy]-phenyl}-2,5,6,7-tetrahydro-cyclopenta[d]pyridazin-1-one] | –
– | – | 0.1 to 100 nM | 0.1 to 100 nM | C[C@H](COc1ccc(-c2ccc(=O)n(C)n2)cc1)CN1CCC[C@H]1C [Example 13, 2-Methyl-6-{4-[(S)-2-methyl-3-((R)-2-methyl-pyrrolidin-1-yl)-propoxy]-phenyl}-2H-pyridazin-3-one] | –
– | – | – | – | Cn1nc(-c2ccc(OCCCN3CCC[C@H]3CO)cc2)ccc1=O [Example 14, 6-{4-[3-((S)-2-Hydroxymethyl-pyrrolidin-1-yl)-propoxy]-phenyl}-2-methyl-2H-pyridazin-3-one] | 0.1 to 100 nM
– | – | – | – | Cn1nc(-c2ccc(OCCCN3CCC[C@@H]3CO)cc2)ccc1=O [Example 15, 6-{4-[3-((R)-2-Hydroxymethyl-pyrrolidin-1-yl)-propoxy]-phenyl}-2-methyl-2H-pyridazin-3-one] | 501 to 1000 nM
– | – | 0.1 to 100 nM | 0.1 to 100 nM | C[C@@H]1CCCN1CCCOc1ccc(C2=NN(C)C(=O)CC2)cc1 [Example 16, 2-Methyl-6-{4-[3-((R)-2-methyl-pyrrolidin-1-yl)-propoxy]-phenyl}-4,5-dihydro-2H-pyridazin-3-one] | –
– | – | 0.1 to 100 nM | 0.1 to 100 nM | C[C@@H]1CCCN1CCCOc1ccc(C2=NN(Cc3ccccc3)C(=O)CC2)cc1 [Example 17, 2-Benzyl-6-{4-[3-((R)-2-methyl-pyrrolidin-1-yl)-propoxy]-phenyl}-4,5-dihydro-2H-pyridazin-3-one] | –
– | – | 0.1 to 100 nM | 0.1 to 100 nM | C[C@@H]1CCCN1CCCOc1ccc(-c2ccc(=O)n(Cc3ccccc3)n2)cc1 [Example 18, 2-Benzyl-6-{4-[3-((R)-2-methyl-pyrrolidin-1-yl)-propoxy]-phenyl}-2H-pyridazin-3-one] | –
– | – | 0.1 to 100 nM | 0.1 to 100 nM | C[C@@H]1CCCN1CCCOc1ccc(C2=NN(c3ccccc3)C(=O)CC2)cc1 [Example 19] | –
– | – | 0.1 to 100 nM | 0.1 to 100 nM | C[C@@H]1CCCN1CCCOc1ccc(-c2ccc(=O)n(-c3ccccc3)n2)cc1 [Example 20, 6-{4-[3-((R)-2-Methyl-pyrrolidin-1-yl)-propoxy]-phenyl}-2-phenyl-2H-pyridazin-3-one] | –
– | 0.1 to 100 nM | – | – | C[C@@H]1CCCN1CCCOc1ccc(-c2n[nH]c(=O)cc2-c2ccccn2)cc1 [Example 112, 6-{4-[3-((R)-2-Methyl-pyrrolidin-1-yl)-propoxy]-phenyl}-5-pyridin-2-yl-2H-pyridazin-3-one] | –
– | – | – | – | C[C@@H]1CC(=O)NN=C1c1ccc(OC2CCN(C3CCC3)CC2)cc1 [Example 190, (R)-6-[4-(1-Cyclobutyl-piperidin-4-yloxy)-phenyl]-5-methyl-4,5-dihydro-2H-pyridazin-3-one] | 0.1 to 100 nM
– | – | – | – | C[C@H]1CC(=O)NN=C1c1ccc(OC2CCN(C3CCC3)CC2)cc1 [Example 191, (S)-6-[4-(1-Cyclobutyl-piperidin-4-yloxy)-phenyl]-5-methyl-4,5-dihydro-2H-pyridazin-3-one] | 0.1 to 100 nM
